Assays:
[1] = tested on: SKOV3 cells (ovarian cancer); assay: single dose MTT assay, SKOV3; type: cell-based; conditions: 10 μM, 48 h, Mean ± SEM of three independent experiments
Text: (§1) All of the target compounds 5-(1H-indol-3-yl)-1,3-substituted pyrimido[4,5-d]pyrimidine-2,4,7(1H,3H,8H)-trione derivatives (4a-c) were subjected to a single dose MTT (3-(4,5-dimethylthiazol-2-yl)-2,5-diphenyltetrazolium bromide) assay to evaluate their cytotoxicity (growth-inhibiting activities) against the breast cancer (MCF-7, MDA-MB-231), ovarian cancer (A2780, SKOV-3) and cervical cancer (HELA) cell lines. Cell lines were obtained from ATCC (American Type Culture Collection). Doxorubicin was used as a positive control.
(§2) HELA and MCF-7 cells were seeded at 10000 cells/well, while MDA-MB-231, A2780, and SKOV-3 cells were seeded at 20000 cells/well in 96 well plates to ensure that cells were non-confluent and able to proliferate over the course of the assay period. After 24 h in culture, cells were treated with test compounds 5-(1H-indol-3-yl)-1,3-substituted pyrimido[4,5-d]pyrimidine-2,4,7(1H,3H,8H)-trione derivatives (4a-c) at a single dose of 10 μM concentration and incubated for 48 h. Cells were inspected under the microscope to detect any visible morphological changes. Cells were washed with PBS, and then the cells were treated with 100 μl of 1 mg/ml fresh filtered MTT suspended in a culture medium; the plates were covered with aluminum foil and incubated for 45 min. Cell viability was marked by the conversion of MTT to the dark-blue-colored formazan by mitochondrial dehydrogenases. DMSO was added to dissolve the insoluble purple formazan product, and optical density (OD) was measured by using a spectrophotometer at a wavelength of […]. The assay was performed in the dark as MTT is light-sensitive. Control wells of culture medium only (without cells) were included as blanks for absorbance measurements.
(§3) Cell viability was calculated according to the following formula: % Cell viability=(OD sample-OD blank/OD control-OD blank)×100 where the blank is given by wells without cells (medium only), control is untreated cells (100% viable).

[2] = tested on: MDA-MB-231 cells (breast cancer); assay: single dose MTT assay, MDA-MB-231; type: cell-based; conditions: 10 μM, 48 h, Mean ± SEM of three independent experiments
Text: as §1, §2, §3

[3] = tested on: HeLa cells (cervical cancer); assay: single dose MTT assay, HeLa; type: cell-based; conditions: 10 μM, 48 h, Mean ± SEM of three independent experiments
Text: as §1, §2, §3

[4] = tested on: A2780 cells (ovarian cancer); assay: single dose MTT assay, A2780; type: cell-based; conditions: 10 μM, 48 h, Mean ± SEM of three independent experiments
Text: as §1, §2, §3

[5] = tested on: MCF7 cells (breast cancer); assay: single dose MTT assay, MCF7; type: cell-based; conditions: 10 μM, 48 h, Mean ± SEM of three independent experiments
Text: as §1, §2, §3

Row | SMILES | Anticancer effect on cancer cell lines SKOV3 (proliferation percentage) [1] | Anticancer effect on cancer cell lines MDA-MB-231 (proliferation percentage) [2] | Anticancer effect on cancer cell lines HeLa (proliferation percentage) [3] | melting point [°C] | Anticancer effect on cancer cell lines A2780 (proliferation percentage) [4] | Anticancer effect on cancer cell lines MCF7 (proliferation percentage) [5]
1 | O=c1nc(-c2c[nH]c3ccccc23)c2c(=O)[nH]c(=S)[nH]c2[nH]1 [Compound 4b, 4-(1H-Indol-3-Yl)-7-Thioxo-7,8-Dihydropyrimido[4,5-d]Pyrimidine-2,5(1H,6H)-Dione] | 69 ± 1.31 | 61 ± 6.00 | 59 ± 2.91 | 180 to 182 | 82 ± 4.05 | 68 ± 4.57
2 | O=c1nc(-c2c[nH]c3ccccc23)c2c(=O)[nH]c(=O)[nH]c2[nH]1 [Compound 4a, 5-(1H-Indol-3-Yl)Pyrimido[4,5-d]Pyrimidine-2,4,7(1H,3H,8H)-Trione] | 79 ± 0.92 | 82 ± 1.01 | 57 ± 6.13 | 160 to 162 | 78 ± 3.60 | 98 ± 3.15
3 | Cn1c(=O)c2c(-c3c[nH]c4ccccc34)nc(=O)[nH]c2n(C)c1=O [Compound 4c, 5-(1H-Indol-3-Yl)-1,3-Dimethylpyrimido[4,5-d]Pyrimidine-2,4,7(1H,3H,8H)-Trione] | 57 ± 3.40 | 62 ± 1.35 | 19 ± 1.58 | 256 to 258 | 63 ± 1.47 | 44 ± 3.90
